Results: patent publication US10781229B2, “Tris- or neopentyl glycol-based amphiphiles and uses thereof” (Industry-University Cooperation Foundation Hanyang …, priority 2015, dated 2020)
“Also recorded” adds a separate entry of the source.

Target: T1, uric acid-xanthine/H+ symporter (UapA) (Emericella nidulans, UniProt Q07307, G411V)
T1 construct: GFP; made in house; host or cells: Saccharomyces cerevisiae FGY217
Test: UapA structural stability by CPM assay
Design: species or system Aspergillus nidulans
Settings: 40° C.
Description: Experiments to measure the structural stability of a uric acid-xanthine/H+ symporter (UapA) due to TDTs or NDTs in an aqueous solution were conducted. The structural stability of UapA was measured using CPM assay, and the concentrations of TDTs, NDTs, and DDM concentration were CMC+0.04% by weight.
In particular, UapA protein is a uric acid-xanthine/H+ symporter in Aspergillus nidulans). The stability of the protein was measured using N-[4-(7-Diethylamino-4-methyl-3-coumarinyl)phenyl]maleimide (CPM), as a sulfhydryl-specific fluorophore, by means of a fluorescence spectrophotometer. A free sulfhydryl group of a cysteine residue is present within the center of the protein but may be present near a solvent due to unfolding of the protein. CPM becomes fluorescent by reaction with free thiol and, accordingly, functions as a sensor of unfolding. […] The reaction was monitored at 40° C. for 120 minutes by means of a microplate spectrofluorometer. So as to calculate a ratio of folded proteins relative to remaining proteins after being maintained at 40° C. for […], relative maximum fluorescence was used. […]

T1 sequence (Q07307 12-574 G411V): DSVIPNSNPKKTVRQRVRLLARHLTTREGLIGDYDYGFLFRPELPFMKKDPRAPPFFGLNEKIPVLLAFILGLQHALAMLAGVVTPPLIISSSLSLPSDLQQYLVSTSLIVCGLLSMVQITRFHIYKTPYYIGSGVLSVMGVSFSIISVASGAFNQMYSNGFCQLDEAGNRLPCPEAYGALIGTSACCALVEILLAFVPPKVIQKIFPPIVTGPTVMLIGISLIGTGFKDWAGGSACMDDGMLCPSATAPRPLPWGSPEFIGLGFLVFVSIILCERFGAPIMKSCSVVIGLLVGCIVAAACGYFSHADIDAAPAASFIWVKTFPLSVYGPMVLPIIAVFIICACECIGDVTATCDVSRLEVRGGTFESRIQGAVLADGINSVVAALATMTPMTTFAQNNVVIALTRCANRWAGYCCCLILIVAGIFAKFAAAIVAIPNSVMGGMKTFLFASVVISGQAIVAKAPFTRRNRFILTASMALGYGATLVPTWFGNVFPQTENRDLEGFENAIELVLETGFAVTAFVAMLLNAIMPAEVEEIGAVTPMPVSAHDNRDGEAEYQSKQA

CCCCCCCCCCCC(CCCCCCCCCCC)COCC(CO[C@@H]1OC(CO)[C@@H](O)C(O)C1O)(CO[C@@H]1OC(CO)[C@@H](O)C(O)C1O)CO[C@@H]1OC(CO)[C@@H](O)C(O)C1O (some centres unmarked) [NDT-C11]
UapA protein structural stability (amount of folded protein) (CMC+0.04% by weight): most excellent
UapA protein structural stability (amount of folded protein) (CMC+0.2% by weight): most excellent; also recorded: superior to those of MNG-3
